Measurements as given in patent US20130287890A1, “INHIBITOR OF THE PRODUCTION OF ADVANCED GLYCATION END PRODUCTS” (UENO FINE CHEMICALS INDUSTRY, LTD., priority 2012, published 2013).

How the values were obtained:
human RAGE = molecular target: T1, human RAGE (Homo sapiens, UniProt Q15109); test: RAGE antagonist activity of reaction samples (120° C., 60 minutes) mixed with AGE-BSA, NF-κB luciferase assay in C6 glioma cells; format: cell-based, rat; conditions: Test Example 2
T1 construct: human RAGE plasmid (including full-length human RAGE cDNA); expressed in transfected cells; host or cells: C6 glioma cells carrying pNF-κB-Luc plasmid and human RAGE plasmid
T1 sequence (Q15109 23-404): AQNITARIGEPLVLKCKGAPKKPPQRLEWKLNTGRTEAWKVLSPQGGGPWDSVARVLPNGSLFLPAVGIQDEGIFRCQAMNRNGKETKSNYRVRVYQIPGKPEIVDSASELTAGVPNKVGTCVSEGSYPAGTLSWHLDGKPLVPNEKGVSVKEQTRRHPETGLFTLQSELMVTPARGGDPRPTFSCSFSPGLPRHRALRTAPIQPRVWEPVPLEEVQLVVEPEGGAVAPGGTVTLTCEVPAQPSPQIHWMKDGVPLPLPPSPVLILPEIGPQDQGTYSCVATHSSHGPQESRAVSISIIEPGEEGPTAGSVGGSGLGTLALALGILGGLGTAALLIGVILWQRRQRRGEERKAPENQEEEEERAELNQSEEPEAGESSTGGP
Description: Food-derived proteins, carbohydrates and a phosphate buffer solution were charged in a 30 mL glass test tube in each amount shown in Table 6, followed by sealing and stirring, and then the mixture was reacted in an autoclave at 120° C. for 60 minutes. Next, the reactant was fractionated by centrifugation at 3,000 rpm for 3 hours using an ultrafiltration unit (VIVA SPIN 20, manufactured by Sartorius Corporation). The obtained low molecular weight fraction was used as a sample for determination of 3-DG, while the obtained high molecular weight fraction was used as a sample for the determination of fluorescent AGEs, RAGE agonist activity and RAGE antagonist activity. Food-derived proteins and carbohydrates used are as follows:
Using Luciferase Assay System (manufactured by Promega Corporation), evaluation of RAGE antagonist activity was performed. (Day 1) According to the methods disclosed in Diabetes, 2006, vol. 55, pp. 2510-2522, C6 glioma cells into which pNF-κB-Luc plasmid (manufactured by Stratagene Corporation) and human RAGE plasmid (including full-length human RAGE cDNA) have been introduced were seeded at 100 μL/well into a 96-well plate and cultured in a CO2 incubator until the cells were confluent. For the culture, 10% FBS/DMEM medium was used. (Day 2) The medium was removed, and after wells were washed with 300 μL of serum-free DMEM medium, 100 μL of 0.1% FBS/DMEM medium was slowly added. Then, the medium was incubated overnight in a CO2 incubator. (Day 3) The sample was diluted using the medium, and 50 μL of the diluted sample, AGE-BSA in which AGE was formed with glyceraldehydes (50 μg/mL) as a control, and the mixture of diluted sample and AGE-BSA were added to wells. After incubation in a CO2 incubator for 4 hours, the medium was removed and wells were washed 2 times with 300 μL of PBS(−). Then, 25 μL of 1× lysis buffer was added on ice. After the plate was shaken for 15 seconds, 20 μl of lysate was charged in a new white plate. Further 100 μL of a luciferase assay reagent was added, and a fluorescence intensity was measured by a luminometer. Using 5 μl of lysate, quantitative determination of protein was also performed.

pentosidine = test: Quantitative determination of pentosidine (FSK Pentosidine kit) after reaction at 120° C. for 60 minutes; format: biochemical; conditions: Test Example 1; for Pentosidine: lysine + arginine 0.2 g each, carbohydrate 3.40 g each, 120° C., 60 minutes
Description: Amino acids, carbohydrates and a phosphate buffer solution were charged in a 30 mL glass test tube in each amount shown in Table 1, followed by sealing and stirring. […] The filtrate thus obtained was used as a sample. The amino acids and carbohydrates used are as follows. Using a pentosidine measurement kit “FSK Pentosidine (registered trademark)” (manufactured by Fushimi Pharmaceutical Co., Ltd.), quantitative determination of pentosidine was performed. Thirty (30) or more minutes before use, reagents and pentosidine solid-phase plates were put to room temperature. After dilution of the sample, a 50 μL aliquot of the sample was dispensed to a pentosidine solid plate attached to the kit, and 50 μL of a first antibody solution was dispensed into wells other than the wells for measurement of reagent blank value. After the sample and the antibody solution were mixed by shaking the plate at 300 rpm for 1 minute, the solution was reacted at 37° C. for 1 hour. Next, the reaction solution was discarded, and 200 μL of rinsing fluid was dispensed to wash the plate. The washing was performed for 3 times. After liquid on the plate was removed, 100 μL of a second antibody solution was dispensed into wells other than the wells for measurement of reagent blank value. After the solution was mixed by shaking the plate at 300 rpm for 1 minute, the solution was reacted at 25° C. for 1 hour. Then, the reaction solution was discarded, and the plate was washed for 3 times with 200 μL of rinsing fluid again. Liquid on the plate was removed, and 100 μL of a color coupler was dispensed and left to stand for 10 minutes under a light shielding condition. Finally, 100 μL of a reaction stop solution was dispensed, and within 10 minutes after the dispensing, measurement was performed at main wavelength 450 nm/reference wavelength 630 nm using a micro-plate reader. The concentration of pentosidine was determined using the calibration curve of a pentosidine standard solution, based on measurement values of the sample.

CML = test: Quantitative determination of CML (CircuLex ELISA kit) after reaction at 120° C. for 60 minutes; format: biochemical; conditions: Test Example 1; for CML: lysine + arginine 0.2 g each, carbohydrate 3.40 g each, 120° C., 60 minutes
Description: Amino acids, carbohydrates and a phosphate buffer solution were charged in a 30 mL glass test tube in each amount shown in Table 1, followed by sealing and stirring. […] The filtrate thus obtained was used as a sample. The amino acids and carbohydrates used are as follows. Using CircuLex CML/Nε-(carboxymethyl) lysine ELISA kit (manufactured by CycLex Co., Ltd.), quantitative determination of CML was performed. Thirty (30) or more minutes before use, reagents and CML solid-phase wells were put to room temperature. […] By performing dilution with standard dilution buffers, standards 1 to 7 were prepared. The sample was diluted as necessary with sample dilution buffers. A CML-HSA standard and 60 μL of the sample were dispensed into a 96-well plate, which is not an accessory to the kit. Next, ultrapure water (Milli-Q water) was added to a first antibody powder, and by diluting with sample dilution buffers, a first antibody solution was prepared, and then 60 μL of the antibody solution was dispensed into the plate and mixed. […] Then, the reaction solution was discarded, and 350 μL of rinsing fluid was dispensed to wash the plate. The washing was performed for 4 times. After liquid on the plate was removed, 100 μL of a second antibody solution was dispensed and reacted at 25° C. for 1 hour while being shaken at 300 rpm. The reaction solution was discarded, and the plate was washed for 4 times with 350 μL of rinsing fluid again. Liquid on the plate was removed, and 100 μL of a color coupler was dispensed. Then, the solution was left to stand for 10 minutes under a light shielding condition while being shaken at 300 rpm. Finally, 100 μL of a reaction stop solution was dispensed, and within 30 minutes after the dispensing, measurement was performed at main wavelength 450 nm/reference wavelength 595 nm using a micro-plate reader. The concentration of CML was determined using the calibration curve of a CML standard solution, based on measurement values of the sample.

[1] = gliadin + carbohydrate, mixture of sample and AGE-BSA, protein 0.1 μg/mL, relative to control (AGE-BSA) = 1
[2] = lactalbumin + carbohydrate, mixture of sample and AGE-BSA, protein 10 μg/mL, relative to control (AGE-BSA) = 1
[3] = lactic casein + carbohydrate, mixture of sample and AGE-BSA, protein 1 μg/mL, relative to control (AGE-BSA) = 1
[4] = ovalbumin + carbohydrate, mixture of sample and AGE-BSA, protein 10 μg/mL, relative to control (AGE-BSA) = 1
[5] = soybean casein + carbohydrate, mixture of sample and AGE-BSA, protein 0.1 μg/mL, relative to control (AGE-BSA) = 1
[6] = amino acids, compared with the test section 1 containing only sucrose

RAGE antagonist activity (human RAGE; [1]) | RAGE antagonist activity (human RAGE; [2]) | RAGE antagonist activity (human RAGE; [3]) | RAGE antagonist activity (human RAGE; [4]) | RAGE antagonist activity (human RAGE; [5]) | RAGE antagonist activity (human RAGE; test sections 2 and 5 (ovalbumin, lactalbumin) compared with sections 1 and 4 containing sucrose) | Compound | production of pentosidine (pentosidine; [6]) | Pentosidine (pentosidine) | production of CML (CML; [6]) | CML (CML)
0.90 | 0.54 | 1.42 | 1.74 | 0.99 | decreased | OC[C@@H](O)[C@@H](O[C@H]1O[C@H](CO)[C@@H](O)[C@H](O)[C@H]1O)[C@H](O)[C@@H](O)CO [Maltitol] | decreased | 3.4 nmol/1 g of amino acid | decreased | 15.0 nmol/1 g of amino acid
1.00 | 0.58 | 1.50 | 1.80 | 1.01 |  | OC[C@H]1O[C@@](CO)(O[C@H]2O[C@H](CO)[C@@H](O)[C@H](O)[C@H]2O)[C@@H](O)[C@@H]1O [Sucrose, reference compound] |  | 8.4 nmol/1 g of amino acid |  | 17.4 nmol/1 g of amino acid
